In article PMC12121777 (PLOS One, 2025):
Values after ≈ are worked out from the molar mass of the structure shown. Like-named read-outs stand apart in the source and are kept apart here.

Legend:
Mtb 331/88 (i.e., H37Rv) = test: MIC, micro method in Šula's semisynthetic medium, drug-susceptible Mtb; type: cell-based, Mycobacterium tuberculosis; conditions: Mycobacterium tuberculosis, H37RV
[1] = test system: Mycobacterium avium 330/88; test: MIC, micro method in Šula's semisynthetic medium, M. avium; type: cell-based
[2] = test system: Mycobacterium kansasii 6509/96; test: MIC, micro method in Šula's semisynthetic medium, M. kansasii clinical isolate; type: cell-based; conditions: read-out: MIC M. kansasii 6509/96
Mtb H37Ra pVV2 = test: microbe, parasite or virus in culture; type: cell-based; conditions: Mycobacterium tuberculosis, 672 h, 28 days
Mtb H37Ra pVV2-dprE2 = test: microbe, parasite or virus in culture; type: cell-based; conditions: Mycobacterium tuberculosis, 672 h, 28 days
[3] = test system: Mtb H37Ra pVV2-dprE1/dprE2; test: microbe, parasite or virus in culture; type: cell-based; conditions: Mycobacterium tuberculosis, 672 h, 28 days
HepG2 cells = test: Cytotoxicity on HepG2 cell line (CellTiter 96); type: cell-based, human; conditions: Homo sapiens, HepG2, 24 h, read-out: IC50 HepG2
Danio rerio embryos = test: Fish embryo test (FET); type: in vivo; conditions: for mortality: as early as 48 h; for lethality: end of the 96 hours; for observed lethal endpoints: 0.001–100 µM, 96-hour exposure; for embryo coagulation, share of all observed endpoints: whole exposure period
Method: Fish maintenance. A day before the experiment, adult wild-type zebrafish (Danio rerio) were transferred into plastic spawning cages at the end of the 14-hour photoperiod. All fish were spawned at the onset of the following photoperiod. Fertilized eggs were collected within 30 minutes post-fertilization and inspected for health state and developmental stage using a stereomicroscope before exposure to 5g and 4h. Tested compounds were dissolved in DMSO; its concentration in 1 mM stock solution was 0.5%.
Fish embryo test (FET). Fish embryo tests were carried out using six different concentrations (0.001, 0.01, 0.1, 1, 10, and 100 μM) of each of the tested substances and controls over 96 hours at a constant temperature of 26.9°C (±1°C) under semi-static experimental set-up. The used medium was E3 according to Cold Spring Harbor Protocols (5 mM NaCl, 0.17 mM KCl, 0.33 mM CaCl2, 0.33 mM MgSO4). Each FET consists of 24 embryos per concentration, where each embryo is considered an individual replicate. Before the tests, all wells in the testing culture well plates were saturated by overnight incubation with corresponding concentrations of 5g and 4h. Before loading the embryos into the well plates, all solutions were replaced by freshly aerated ones with corresponding concentrations or controls. All solutions in the well plates were changed again after 48 hours of exposure to minimize a potential reduction in oxygen levels and compound concentration. Fish embryos were inspected and scored for mortality, morphological changes, or hatching success rates at 24-, 48-, 72-, and 96-hours post-exposure (hpe) under an inverted microscope (Olympus IX71; Olympus Czech Group, s.r.o., Czech Republic). […] In comparison, > 90% of the embryos in the positive control (3,4-dichloroaniline) were considered dead at the end of the 96-hour exposure. Morphological endpoints in our analysis were: (1) coagulation of fertilised eggs or developing embryos; (2) lack of somite formation; (3) lack of detachment of the tail bud from the yolk sac; (4) lack of heartbeat or heart defects (oedema); (5) malformations of body parts (head and tail region); (6) growth retardation. All morphological endpoints were used to determine the mortality (a positive endpoint means the embryo was considered dead).
For both compounds, the negative controls involved pure E3 medium and E3 medium containing 0.05% DMSO.

Mtb H37Rv = test: Metabolic labeling with 14C acetate and TLC lipid analysis; conditions: 10× and 100× MIC, 14C acetate, 24 h
Bacillus subtilis = test system: Bacillus subtilis; design: method as in PMID 30988267; conditions: cited from earlier work
Staphylococcus aureus = test system: Staphylococcus aureus; design: method as in PMID 30988267; conditions: cited from earlier work
Mtb = test system: Mtb; design: method as in PMID 33462533; conditions: cited from earlier work
[4] = 330/88, 336 h, read-out: MIC M. avium 330/88
[5] = 330/88, 504 h, read-out: MIC M. avium 330/88

CCCCCCCCNC(=O)NNC(=O)c1cc([N+](=O)[O-])cc([N+](=O)[O-])c1 [Compound 4h, 2-(3,5-Dinitrobenzoyl)-N-octylhydrazine-1-carboxamide]
MIC (Mtb 331/88 (i.e., H37Rv); 336 h, 14 days): 0.25 µM (≈ 0.0953 µg/mL) | MIC (Mtb 331/88 (i.e., H37Rv); 504 h, 21 days): 0.5 µM (≈ 0.191 µg/mL) | MIC [1, 4]: 125 µM (≈ 47.7 µg/mL) | MIC [1, 5]: 250 µM (≈ 95.3 µg/mL) | MIC ([1]; 330/88, read-out: MIC M. avium): 125 to 250 µM (≈ 47.7 to 95.3 µg/mL) | MIC ([2]; 6509/96, 168 h): 1 µM (≈ 0.381 µg/mL) | MIC ([2]; 6509/96, 336 h): 1 µM (≈ 0.381 µg/mL) | MIC ([2]; 6509/96, 504 h): 1 µM (≈ 0.381 µg/mL) | MIC (Mtb H37Ra pVV2): < 0.5 µM | MIC (Mtb H37Ra pVV2-dprE2): < 0.5 µM | MIC [3]: > 2.5 µM | IC50 (HepG2 cells): 136 µM | mortality at 1 µM (Danio rerio embryos): no significant mortality | mortality (Danio rerio embryos; 10 µM): 100% | mortality (Danio rerio embryos; 100 µM): 100% | lethality (Danio rerio embryos; 100 µM): 100% | observed lethal endpoints (Danio rerio embryos): embryo coagulation and growth retardation | embryo coagulation, share of all observed endpoints (Danio rerio embryos): > 35% | lipid profile of treated cells vs untreated cells (Mtb H37Rv): accumulation of TMM and TDM

CCCCCCCNc1nnc(-c2cc([N+](=O)[O-])cc([N+](=O)[O-])c2)o1 [Compound 5g, 5-(3,5-Dinitrophenyl)-N-heptyl-1,3,4-oxadiazol-2-amine]
MIC (Mtb 331/88 (i.e., H37Rv); 336 h, 14 days): ≤ 0.03 µM | MIC (Mtb 331/88 (i.e., H37Rv); 504 h, 21 days): ≤ 0.03 µM | MIC [1, 4]: 4 µM (≈ 1.4 µg/mL) | MIC [1, 5]: 8 µM (≈ 2.79 µg/mL) | MIC ([2]; 6509/96, 168 h): ≤ 0.03 µM | MIC ([2]; 6509/96, 336 h): 0.06 µM (≈ 0.021 µg/mL) | MIC ([2]; 6509/96, 504 h): 0.125 µM (≈ 0.0437 µg/mL) | MIC (Mtb H37Ra pVV2): < 0.06 µM | MIC (Mtb H37Ra pVV2-dprE2): < 0.06 µM | MIC [3]: > 0.3 µM | IC50 (HepG2 cells): > 100 µM | mortality at 1 µM (Danio rerio embryos): no significant mortality | mortality (Danio rerio embryos; 10 µM): 100% | mortality (Danio rerio embryos; 100 µM): 100% | lethality (Danio rerio embryos; 100 µM): 100% | observed lethal endpoints (Danio rerio embryos): pericardial oedema at lower concentrations and by growth retardation at higher concentrations | embryo coagulation, share of all observed endpoints (Danio rerio embryos): > 25% | lipid profile of treated cells vs untreated cells (Mtb H37Rv): accumulation of TMM and TDM

Cc1ccc(-c2nnc(NC(=O)c3ccc([N+](=O)[O-])cc3)o2)cc1 [IX]
MIC (Bacillus subtilis): 780 µg/mL (≈ 2410 µM)

Cc1ccc(C(=O)Nc2nnc(-c3ccc(C)cc3)o2)cc1 [VIII]
MIC (Staphylococcus aureus): 1560 µg/mL (≈ 5320 µM)

O=C(Nc1nnc(COc2ccccc2)o1)c1ccc([N+](=O)[O-])cc1 [X]
MIC (Bacillus subtilis): 780 µg/mL (≈ 2290 µM)

O=c1nc(N2CCN(CC3CCCCC3)CC2)sc2c([N+](=O)[O-])cc(C(F)(F)F)cc12 [macozinone]
MIC for Mtb (Mtb): 0.002 µM
